# Laboratory results published in patent US10413557B2, “Prodrugs of 17.BETA.-HSD1-inhibitors” (FORENDO PHARMA LTD, priority 2014, dated 2019).
# How the values were obtained:
# [1] = Metabolic stability assay; assay type: in vitro ADME; details: human liver homogenate or microsomes
# Procedure: The in vitro metabolic stability of the parent compounds was determined for exemplified compounds using human liver microsome and homogenate incubations. The incubation time points used with or without appropriate cofactors were 0 min and 60 min. Samples were collected at both time points and substrates were detected using LC/PDA/TOF-MS. In vitro metabolic stability (% remaining after 60 min in human liver homogenate or microsomes) of the compounds were calculated and the results are summarized in Table 4.
# [2] = molecular target: T1, recombinant human 17β-HSD2 (Homo sapiens, UniProt P37059); assay: Inhibition of recombinant human 17β-HSD2 (conversion of 3H-estradiol to estrone, HPLC); assay type: biochemical; details: inhibitor 1 μM; 50 nM estradiol, 1 mM NADH, 30 min RT
# T1 construct: made in house; host or cells: Sd9 (Sf9) insect cells, baculovirus (Bac to Bac Expression System)
# T1 sequence (P37059 1-387): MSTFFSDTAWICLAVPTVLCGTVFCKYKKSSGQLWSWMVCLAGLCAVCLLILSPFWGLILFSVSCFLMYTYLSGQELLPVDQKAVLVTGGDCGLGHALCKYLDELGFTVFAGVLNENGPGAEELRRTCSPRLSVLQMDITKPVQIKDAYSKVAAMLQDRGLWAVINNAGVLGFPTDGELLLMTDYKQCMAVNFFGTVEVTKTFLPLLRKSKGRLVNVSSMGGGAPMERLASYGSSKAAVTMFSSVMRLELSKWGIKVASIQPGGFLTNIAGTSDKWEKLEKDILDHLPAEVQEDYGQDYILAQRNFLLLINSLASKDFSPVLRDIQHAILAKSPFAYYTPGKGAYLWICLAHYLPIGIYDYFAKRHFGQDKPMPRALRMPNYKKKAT
# Procedure: 17β-HSD2 production and isolation: Similarly to 17β-HSD1 the Recombinant baculovirus was generated by the “Bac to Bac Expression System” (Invitrogen). Recombinant bacmid was transfected to Sd9 insect cells using “Cellfectin Reagent” (Invitrogen). 60 h later cells were harvested and supernatant were fractionated by the following protocol: • cells were dissolved into 40 ml of A-buffer (40 mM TRIS, pH8.0, 20% glycerol, 20 μM NAD, 0.4 mM PMSF, 150 mM NaCl, 0.5% dodecyl-β-maltoside+protease inhibitor cocktail) • cells were sonicated • lysate was incubated on ice for 15 min • lysate was centrifuged 5000 rpm 15 min, +4° C. • centrifugation of the supernatant 180 000 g 30 min, +4° C. • pellet was dissolved into 8 ml of A-buffer • not resuspended material was removed by centrifugation 5000 rpm 15 min, +4° C. • the clear supernatant was divided into 100 μl aliquots and were stored frozen until determination of enzymatic activity.
# The amount of 17β-HSD2 was analysed by immunoblotting and total protein concentration of each extract batch was determined.
# Assay—Inhibition of recombinant human 17β-HSD2: Protein homogenate (4 μg/ml) was incubated in 20 mM KH2PO4 pH 8.5 with 50 nM estradiol (including 800 000 cpm/ml of ^3H-estradiol) and 1 mM […] for 30 min at RT, in the presence of the potential inhibitor at concentrations 1 μM or 0.1 μM. Inhibitor stock solutions were prepared in DMSO. Final concentration of DMSO was adjusted to 1% in all samples. The enzyme reaction was stopped by addition of 10% trichloroacetic acid (final concentration). Samples were centrifuged in a microtiter plate at 4000 rpm for 10 min. Supernatants were applied to reverse phase HPLC on a Waters Symmetry C18 column, equipped with a Waters Sentry Guard column. Isocratic HPLC runs were performed at RT at a flow rate ofl ml/min in acetonitrile:water 48:52 as running solvent. Radioactivity was monitored in the eluate by a Packard Flow Scintillation Analyzer. Total radioactivity for estrone and estradiol were determined in each sample and percent conversion of estradiol to estrone was calculated according to the following formula:
# (§1) Percent inhibition was calculated flowingly: % inhibition=100−% conversion
# [3] = molecular target: T2, recombinant human 17β-HSD1 (Homo sapiens, UniProt P14061); assay: Inhibition of recombinant human 17β-HSD1 (conversion of 3H-estrone to estradiol, HPLC); assay type: biochemical; details: inhibitor 1 μM, 30 nM estrone, 1 mM NADPH, 30 min RT; for inhibition at 1 µM: read-out: 17β-HDS1 Inhibition % at 1 μM
# T2 construct: made in house; host or cells: Sd9 (Sf9) insect cells, baculovirus (Bac to Bac Expression System)
# T2 sequence (P14061 1-328): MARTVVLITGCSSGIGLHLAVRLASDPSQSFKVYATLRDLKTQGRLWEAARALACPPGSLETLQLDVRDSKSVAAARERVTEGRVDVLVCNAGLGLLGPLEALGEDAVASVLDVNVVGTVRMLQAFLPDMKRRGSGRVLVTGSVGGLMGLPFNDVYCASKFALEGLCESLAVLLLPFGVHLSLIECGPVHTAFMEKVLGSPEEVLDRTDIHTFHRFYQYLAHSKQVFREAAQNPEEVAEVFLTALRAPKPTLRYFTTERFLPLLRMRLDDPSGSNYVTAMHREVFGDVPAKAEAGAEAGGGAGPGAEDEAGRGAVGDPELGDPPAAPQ
# Procedure: 17β-HSD1 production and isolation: Recombinant baculovirus was generated by the “Bac to Bac Expression System” (Invitrogen). Recombinant bacmid was transfected to Sd9 insect cells using “Cellfectin Reagent” (Invitrogen). 60 h later cells were harvested; the microsomal fraction was isolated as described by Puranen, T. J., Poutanen, M. H., Peltoketo, H. E., Vihko, P. T. and Vihko, R. K. (1994) Site-directed mutagenesis of the putative active site of human 17 β-hydroxysteroid dehydrogenase type 1. Biochem. J. 304: 289-293. Aliquots were stored frozen until determination of enzymatic activity.
# Assay—Inhibition of recombinant human 17β-HSD1: Protein homogenate (0.1 μg/ml) was incubated in 20 mM KH2PO4 pH 7.4 with 30 nM estrone (including 800 000 cpm/ml of ^3H-estrone) and 1 mM NADPH for 30 min at RT, in the presence of the potential inhibitor at concentrations 1 μM or 0.1 μM. Inhibitor stock solutions were prepared in DMSO. Final concentration of DMSO was adjusted to 1% in all samples. The enzyme reaction was stopped by addition of 10% trichloroacetic acid (final concentration). Samples were centrifuged in a microtiter plate at 4000 rpm for 10 min. Supernatants were applied to reverse phase HPLC on a Waters Symmetry C18 column, equipped with a Waters Sentry Guard column. Isocratic HPLC runs were performed at RT at a flow rate of 1 ml/min in acetonitrile:water 48:52 as running solvent. Radioactivity was monitored in the eluate by a Packard Flow Scintillation Analyzer. Total radioactivity for estrone and estradiol were determined in each sample and percent conversion of estrone to estradiol was calculated according to the following formula:
# as §1
Compound,"In vitro metabolic stability, % remaining after 60 min [1]",17β-HSD2 Inhibition % at 1 μM [2],17β-HDS1 Inhibition % at 1 μM [3],inhibition at 1 µM [2],inhibition at 1 µM [3]
"Cc1cnc(NC(=O)CC[C@@H]2CC(=O)[C@@]3(C)CCC4c5ccc(O)cc5CCC4C23)s1 (some centres unmarked) [VII, reference compound]",13%,–,–,–,–
"3-{(13S,15R)-4-Fluoro-3-hydroxy-17-[(E)-methoxyimino]-13-methyl-7,8,9,11,12,13,14,15,16,17-decahydro-6H-cyclopenta[a]phenanthren-15-yl}-N-(5-methylthiazol-2-yl)propanamide [VIV-16]",68%,7%,90%,–,–
"CO/N=C1\C[C@@H](CCC(=O)Nc2ncc(C)s2)C2C3CCc4cc(O)c(Br)cc4C3CC[C@]12C (stereo partly drawn) [VIV-9, 3-{(13S,15R)-2-Bromo-3-hydroxy-17-[(E)-methoxyimino]-13-methyl-7,8,9,11,12,13,14,15,16,17-decahydro-6H-cyclopenta[a]phenanthren-15-yl}-N-(5-methylthiazol-2-yl)-propanamide]",34%,–,–,1%,81%
"3-{(13S,15R)-2-Fluoro-3-hydroxy-17-[(E)-methoxyimino]-13-methyl-7,8,9,11,12,13,14,15,16,17-decahydro-6H-cyclopenta[a]phenanthren-15-yl}-N-(5-methylthiazol-2-yl)propanamide [VIV-15]",92%,5%,94%,–,–
"Cc1cnc(NC(=O)CC[C@@H]2C/C(=N\O)[C@@]3(C)CCC4c5cc(F)c(O)cc5CCC4C23)s1 (stereo partly drawn) [VIV-31, 3-{(13S,15R)-2-Fluoro-3-hydroxy-17-[(E)-hydroxyimino]-13-methyl-7,8,9,11,12,13,14,15,16,17-decahydro-6H-cyclopenta[a]phenanthren-15-yl}-N-(5-methylthiazol-2-yl)propanamide]",–,–,–,14%,97%
"CO/N=C1\C[C@@H](CCC(=O)Nc2ncc(C)s2)C2C3CCc4c(cc(F)c(O)c4Br)C3CC[C@]12C (stereo partly drawn) [VIV-18, 3-{(13S,15R)-4-Bromo-2-fluoro-3-hydroxy-17-[(E)-methoxyimino]-13-methyl-7,8,9,11,12,13,14,15,16,17-decahydro-6H-cyclopenta[a]phenanthren-15-yl}-N-(5-methylthiazol-2-yl)propanamide]",–,–,–,1%,55%
"Cc1cnc(NC(=O)CC[C@@H]2C/C(=N\O)[C@@]3(C)CCC4c5cc([N+](=O)[O-])c(O)cc5CCC4C23)s1 (stereo partly drawn) [VIV-23, 3-{(13S,15R)-3-Hydroxy-2-nitro-17-[(E)-hydroxyimino]-13-methyl-7,8,9,11,12,13,14,15,16,17-decahydro-6H-cyclopenta[a]phenanthren-15-yl}-N-(5-methylthiazol-2-yl)propanamide]",–,–,–,6%,95%
"CO/N=C1\C[C@@H](CCC(=O)Nc2ncc(C)s2)C2C3CCc4c(cc(Br)c(O)c4F)C3CC[C@]12C (stereo partly drawn) [VIV-17, 3-{(13S,15R)-2-Bromo-4-fluoro-3-hydroxy-17-[(E)-methoxyimino]-13-methyl-7,8,9,11,12,13,14,15,16,17-decahydro-6H-cyclopenta[a]phenanthren-15-yl}-N-(5-methylthiazol-2-yl)propanamide]",–,–,–,2%,83%
"Cc1cnc(NC(=O)CC[C@@H]2C/C(=N\O)[C@@]3(C)CCC4c5cc(Br)c(O)c(Br)c5CCC4C23)s1 (stereo partly drawn) [VIV-27, 3-{(13S,15R)-2,4-Dibromo-3-hydroxy-17-[(E)-hydroxyimino]-13-methyl-7,8,9,11,12,13,14,15,16,17-decahydro-6H-cyclopenta[a]phenanthren-15-yl}-N-(5-methylthiazol-2-yl)propanamide]",–,–,–,28%,98%
"CO/N=C1\C[C@@H](CCC(=O)Nc2ncc(C)s2)C2C3CCc4c(cc(I)c(O)c4I)C3CC[C@]12C (stereo partly drawn) [VIV-8, 3-{(13S,15R)-3-Hydroxy-2,4-diiodo-17-[(E)-methoxyimino]-13-methyl-7,8,9,11,12,13,14,15,16,17-decahydro-6H-cyclopenta[a]phenanthren-15-yl}-N-(5-methylthiazol-2-yl)propanamide]",–,–,–,2%,61%
"Cc1cnc(NC(=O)CC[C@@H]2C/C(=N\O)[C@@]3(C)CCC4c5cc(Cl)c(O)cc5CCC4C23)s1 (stereo partly drawn) [VIV-28, 3-{(13S,15R)-2-Chloro-3-hydroxy-17-[(E)-hydroxyimino]-13-methyl-7,8,9,11,12,13,14,15,16,17-decahydro-6H-cyclopenta[a]phenanthren-15-yl}-N-(5-methylthiazol-2-yl)propanamide]",–,–,–,21%,98%
"CO/N=C1\C[C@@H](CCC(=O)Nc2ncc(C)s2)C2C3CCc4cc(O)c(Cl)cc4C3CC[C@]12C (stereo partly drawn) [VIV-12, 3-{(13S,15R)-2-Chloro-3-hydroxy-17-[(E)-methoxyimino]-13-methyl-7,8,9,11,12,13,14,15,16,17-decahydro-6H-cyclopenta[a]phenanthren-15-yl}-N-(5-methylthiazol-2-yl)propanamide]",94%,–,–,3%,95%
"CO/N=C1\C[C@@H](CCC(=O)Nc2ncc(C)s2)C2C3CCc4cc(O)c(I)cc4C3CC[C@]12C (stereo partly drawn) [VIV-6, 3-{(13S,15R)-3-Hydroxy-2-iodo-17-[(E)-methoxyimino]-13-methyl-7,8,9,11,12,13,14,15,16,17-decahydro-6H-cyclopenta[a]phenanthren-15-yl}-N-(5-methylthiazol-2-yl)propanamide]",–,–,–,0%,90%
